ChEMBL document CHEMBL3397033, “Bioactive benzofuran derivatives: moracins A-Z in medicinal chemistry” (Eur J Med Chem, 2015)
pIC50: −log10 of the molar value. ≈ marks a conversion by molar mass, not a printed value.

Legend:
Pseudomonas aeruginosa [1] = test: Antimicrobial activity against Pseudomonas aeruginosa by liquid microdilution assay; assay type: functional
Mus musculus [2] = test: Hypoglycemic activity in alloxan-induced diabetic mouse assessed as fasting blood glucose level at 10 mg/kg; assay type: functional
Citrobacter freundii [3] = test: Antimicrobial activity against Citrobacter freundii by liquid microdilution assay; assay type: functional
Microsporum audouinii [4] = test: Microbicidal activity against Microsporum audouinii by liquid microdilution assay; assay type: functional
[5] = Antiinflammatory activity against rat PMN assessed as inhibition of PAF-induced beta-glucuronidase release relative to control; assay type: functional
Pseudomonas aeruginosa [6] = test: Microbicidal activity against Pseudomonas aeruginosa by liquid microdilution assay; assay type: functional
Escherichia coli [7] = test: Antimicrobial activity against Escherichia coli by liquid microdilution assay; assay type: functional
Escherichia coli [8] = test: Antimicrobial activity against Escherichia coli; assay type: functional
Bacillus subtilis = test: Antimicrobial activity against Bacillus subtilis; assay type: functional
[9] = target: T1, Hypoxia-inducible factor 1-alpha (Homo sapiens, UniProt Q16665); test: Inhibition of HIF-1alpha in human Hep3B cells assessed as decrease in VEGF level at > 50 uM after 20 hrs by ELISA; assay type: cell-based; details: hep 3b2
Staphylococcus aureus [10] = test: Antimicrobial activity against methicillin-resistant Staphylococcus aureus; assay type: functional
Klebsiella pneumoniae [11] = test: Antimicrobial activity against Klebsiella pneumoniae; assay type: functional
Microsporum audouinii [12] = test: Antimicrobial activity against Microsporum audouinii by liquid microdilution assay; assay type: functional
Shigella dysenteriae [13] = test: Antimicrobial activity against Shigella dysenteriae by liquid microdilution assay; assay type: functional
Enterococcus faecalis [14] = test: Microbicidal activity against Streptococcus faecalis by liquid microdilution assay; assay type: functional
Klebsiella pneumoniae [15] = test: Antimicrobial activity against Klebsiella pneumoniae by liquid microdilution assay; assay type: functional
Escherichia coli [16] = test: Microbicidal activity against Escherichia coli by liquid microdilution assay; assay type: functional
Klebsiella pneumoniae [17] = test: Microbicidal activity against Klebsiella pneumoniae by liquid microdilution assay; assay type: functional
Enterococcus faecalis [18] = test: Antimicrobial activity against Streptococcus faecalis by liquid microdilution assay; assay type: functional
[19] = Cytotoxicity against human Hep3B cells assessed as cell viability after 24 hrs by MTT assay; assay type: cell-based, Hep 3B2
Mus musculus [20] = test: Hypoglycemic activity in alloxan-induced diabetic mouse assessed as fasting blood glucose level at 50 mg/kg; assay type: functional
Pseudomonas aeruginosa [21] = test: Antimicrobial activity against Pseudomonas aeruginosa; assay type: functional
Staphylococcus aureus [22] = test: Antimicrobial activity against methicillin-sensitive Staphylococcus aureus; assay type: functional
Salmonella typhi [23] = test: Microbicidal activity against Salmonella typhi by liquid microdilution assay; assay type: functional, Salmonella enterica subsp. enterica serovar Typhi; details: Salmonella enterica
[24] = target: T1, Hypoxia-inducible factor 1-alpha; test: Inhibition of HIF-1alpha in human Hep3B cells cotransfected with pGL3-HRE-luciferase plasmid at > 50 uM after 24 hrs by dual-luciferase reporter assay; assay type: cell-based; details: hep 3b2
Shigella dysenteriae [25] = test: Microbicidal activity against Shigella dysenteriae by liquid microdilution assay; assay type: functional
Micrococcus luteus = test: Antimicrobial activity against Micrococcus luteus; assay type: functional
Salmonella typhi [26] = test: Antimicrobial activity against Salmonella typhi by liquid microdilution assay; assay type: functional, Salmonella enterica subsp. enterica serovar Typhi; details: Salmonella enterica
Rosellinia necatrix = test: Antifungal activity against Rosellinia necatrix; assay type: functional
[27] = Antifungal activity against Cochliobolus miyabeanus; assay type: functional; details: Bipolaris oryzae
Staphylococcus aureus [28] = test: Antimicrobial activity against Staphylococcus aureus RN4220 assessed as inhibition of cell growth by broth microdilution method; assay type: functional
Staphylococcus aureus [29] = test: Inhibition of protein biosynthesis in Staphylococcus aureus assessed as incorporation of [14C]leucine by scintillation counting analysis; assay type: functional, organism-based
[30] = Antifungal activity against Fusarium solani f. sp. mori; assay type: functional
[31] = Antifungal activity against Stigmina mori; assay type: functional
Staphylococcus aureus [32] = test: Inhibition of fatty acid biosynthesis in Staphylococcus aureus assessed as incorporation of [1-14C]acetate by scintillation counting analysis; assay type: functional, organism-based
[33] = Antifungal activity against Fusarium lateritium f. sp. mori; assay type: functional
[34] = Inhibition of alpha-glucosidase (unknown origin); design: species or system Homo sapiens
Bacillus cereus [35] = test: Microbicidal activity against Bacillus cereus by liquid microdilution assay; assay type: functional
Bacillus cereus [36] = test: Antimicrobial activity against Bacillus cereus by liquid microdilution assay; assay type: functional
Candida albicans [37] = test: Antimicrobial activity against Candida albicans by liquid microdilution assay; assay type: functional
Citrobacter freundii [38] = test: Microbicidal activity against Citrobacter freundii by liquid microdilution assay; assay type: functional
[39] = target: Enoyl-[acyl-carrier-protein] reductase [NADPH] FabI (Staphylococcus aureus, UniProt Q6GI75); test: Inhibition of Staphylococcus aureus FabI-mediated trans-2-octenoyl N-acetylcysteamine (t-o-NAC thioester) substrate reduction assessed as decrease in NADPH […]
[40] = Antioxidant activity in liver (unknown origin) assessed as inhibition of Fe2+/cysteine system-induced lipid peroxidation; assay type: functional, tissue-based; details: dose or concentration not given here
Staphylococcus aureus [41] = test: Antimicrobial activity against Staphylococcus aureus by liquid microdilution assay; assay type: functional
Morus alba = test: Antioxidant activity in mulberry leaves assessed as UV-stress-induced free radical scavenging activity measured as inhibition of blue formazan at 100 uM; assay type: functional
Staphylococcus aureus [42] = test: Microbicidal activity against Staphylococcus aureus by liquid microdilution assay; assay type: functional
[43] = Antifungal activity against Diaporthe nomurai; assay type: functional
RAW264.7 [44] = test: Antiinflammatory activity against mouse RAW264.7 cells assessed as reduction of LPS-induced NO production; assay type: functional, cell-based
Staphylococcus aureus [45] = test: Antimicrobial activity against methicillin-resistant Staphylococcus aureus CCARM3167 assessed as inhibition of cell growth by broth microdilution method; assay type: functional
Candida albicans [46] = test: Microbicidal activity against Candida albicans by liquid microdilution assay; assay type: functional
[47] = Antifungal activity against Fusarium roseum; assay type: functional
RAW264.7 [48] = test: Antiinflammatory activity against mouse RAW264.7 cells assessed as reduction of IFNgamma-induced NO production; assay type: functional, cell-based

T1 sequence (Q16665 whole entry): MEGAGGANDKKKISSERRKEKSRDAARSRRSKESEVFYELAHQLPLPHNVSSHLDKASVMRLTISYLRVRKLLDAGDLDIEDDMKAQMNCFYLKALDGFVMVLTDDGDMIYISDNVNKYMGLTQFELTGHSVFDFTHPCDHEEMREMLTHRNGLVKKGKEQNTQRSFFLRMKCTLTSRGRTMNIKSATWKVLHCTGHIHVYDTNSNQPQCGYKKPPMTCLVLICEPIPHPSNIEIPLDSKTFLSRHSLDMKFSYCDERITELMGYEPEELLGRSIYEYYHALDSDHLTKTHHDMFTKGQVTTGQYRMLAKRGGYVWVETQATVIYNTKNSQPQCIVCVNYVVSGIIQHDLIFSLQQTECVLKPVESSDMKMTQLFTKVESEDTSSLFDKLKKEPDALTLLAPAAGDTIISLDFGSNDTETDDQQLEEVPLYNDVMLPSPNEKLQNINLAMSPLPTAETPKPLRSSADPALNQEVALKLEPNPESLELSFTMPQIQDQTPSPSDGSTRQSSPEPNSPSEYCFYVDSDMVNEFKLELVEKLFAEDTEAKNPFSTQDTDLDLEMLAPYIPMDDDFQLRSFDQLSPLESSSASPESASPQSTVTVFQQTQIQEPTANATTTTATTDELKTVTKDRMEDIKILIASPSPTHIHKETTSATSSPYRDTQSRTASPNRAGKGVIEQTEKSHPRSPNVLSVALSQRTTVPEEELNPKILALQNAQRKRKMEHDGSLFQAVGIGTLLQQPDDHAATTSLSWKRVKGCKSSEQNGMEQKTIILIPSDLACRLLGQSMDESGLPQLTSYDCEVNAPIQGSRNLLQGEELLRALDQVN
Sequence of Enoyl-[acyl-carrier-protein] reductase [NADPH] FabI (Q6GI75 whole entry): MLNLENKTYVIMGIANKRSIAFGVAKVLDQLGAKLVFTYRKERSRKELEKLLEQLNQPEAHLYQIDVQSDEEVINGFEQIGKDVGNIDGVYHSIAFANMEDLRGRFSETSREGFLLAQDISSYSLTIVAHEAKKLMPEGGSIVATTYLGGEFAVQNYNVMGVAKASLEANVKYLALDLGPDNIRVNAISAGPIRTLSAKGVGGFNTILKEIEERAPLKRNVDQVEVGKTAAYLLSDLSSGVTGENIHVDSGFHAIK

**Q.** With `Oc1cc(O)cc(-c2cc3ccc(O)cc3o2)c1` [MORACIN M] as the compound, how does the MIC (Pseudomonas aeruginosa [1]) read?
**A.** 156 µg/mL (≈ 644 µM)

**Q.** What about the Activity (Mus musculus [2]) of the same compound?
**A.** 18.52 mmol/L

**Q.** And the MIC (Citrobacter freundii [3])?
**A.** 312 µg/mL (≈ 1290 µM)

**Q.** And the MFC (Microsporum audouinii [4])?
**A.** 312 µg/mL (≈ 1290 µM)

**Q.** And the “inhibition (INH)” value [5]?
**A.** 54%

**Q.** What about the MBC (Pseudomonas aeruginosa [6]) of the same compound?
**A.** 625 µg/mL (≈ 2580 µM)

**Q.** What about the MIC (Escherichia coli [7]) of the same compound?
**A.** 78 µg/mL (≈ 322 µM)

**Q.** What about the MIC (Escherichia coli [8]) of the same compound?
**A.** > 100 µg/mL

**Q.** What about the MIC (Bacillus subtilis) of the same compound?
**A.** 100 µg/mL (≈ 413 µM)

**Q.** And the IC50 [9]?
**A.** Not Active

**Q.** What about the MIC (Staphylococcus aureus [10]) of the same compound?
**A.** 25 µg/mL (≈ 103 µM)

**Q.** What about the MIC (Klebsiella pneumoniae [11]) of the same compound?
**A.** > 100 µg/mL

**Q.** And the MIC (Microsporum audouinii [12])?
**A.** 78 µg/mL (≈ 322 µM)

**Q.** And the MIC (Shigella dysenteriae [13])?
**A.** 78 µg/mL (≈ 322 µM)

**Q.** And the MBC (Enterococcus faecalis [14])?
**A.** 156 µg/mL (≈ 644 µM)

**Q.** What about the MIC (Klebsiella pneumoniae [15]) of the same compound?
**A.** 312 µg/mL (≈ 1290 µM)

**Q.** And the MBC (Escherichia coli [16])?
**A.** 625 µg/mL (≈ 2580 µM)

**Q.** And the MBC (Klebsiella pneumoniae [17])?
**A.** 625 µg/mL (≈ 2580 µM)

**Q.** What about the MIC (Enterococcus faecalis [18]) of the same compound?
**A.** 78 µg/mL (≈ 322 µM)

**Q.** And the pIC50 [19]?
**A.** < 4.52

**Q.** What about the Activity (Mus musculus [20]) of the same compound?
**A.** 20.08 mmol/L

**Q.** What about the MIC (Pseudomonas aeruginosa [21]) of the same compound?
**A.** > 100 µg/mL

**Q.** And the MIC (Staphylococcus aureus [22])?
**A.** 12.5 µg/mL (≈ 51.6 µM)

**Q.** And the MBC (Salmonella typhi [23])?
**A.** 156 µg/mL (≈ 644 µM)

**Q.** And the IC50 [24]?
**A.** Not Active

**Q.** And the MBC (Shigella dysenteriae [25])?
**A.** 156 µg/mL (≈ 644 µM)

**Q.** And the MIC (Micrococcus luteus)?
**A.** 25 µg/mL (≈ 103 µM)

**Q.** What about the MIC (Salmonella typhi [26]) of the same compound?
**A.** 78 µg/mL (≈ 322 µM)

**Q.** What does the source list for `CC(C)=CCc1c(O)cc(-c2cc3ccc(O)cc3o2)cc1O` [MORACIN C]?
**A.** MIC (Pseudomonas aeruginosa [1]): 10 µg/mL (≈ 32.2 µM); MIC (Rosellinia necatrix): 3.5 µg/mL (≈ 11.3 µM); MIC (Citrobacter freundii [3]): 156 µg/mL (≈ 503 µM); MIC [27]: 28 µg/mL (≈ 90.2 µM); MIC (Staphylococcus aureus [28]): 32 µg/mL (≈ 103 µM); pIC50 (Staphylococcus aureus [29]): 3.72; MFC (Microsporum audouinii [4]): 312 µg/mL (≈ 1010 µM); MIC [30]: 224 µg/mL (≈ 722 µM); inhibition (INH) [5]: 100%; MIC [31]: 112 µg/mL (≈ 361 µM); pIC50 (Staphylococcus aureus [32]): 4.13; MBC (Pseudomonas aeruginosa [6]): 39 µg/mL (≈ 126 µM); MIC (Escherichia coli [7]): 39 µg/mL (≈ 126 µM); MIC (Escherichia coli [8]): > 100 µg/mL; MIC (Bacillus subtilis): 3.13 µg/mL (≈ 10.1 µM); MIC (Staphylococcus aureus [10]): 12.5 µg/mL (≈ 40.3 µM); MIC [33]: 7 µg/mL (≈ 22.6 µM); pIC50 [34]: 5.39; MIC (Klebsiella pneumoniae [11]): > 100 µg/mL; MBC (Bacillus cereus [35]): 156 µg/mL (≈ 503 µM); MIC (Bacillus cereus [36]): 78 µg/mL (≈ 251 µM); MIC (Microsporum audouinii [12]): 78 µg/mL (≈ 251 µM); MIC (Shigella dysenteriae [13]): 5 µg/mL (≈ 16.1 µM); MIC (Candida albicans [37]): 68 µg/mL (≈ 219 µM); MBC (Enterococcus faecalis [14]): 78 µg/mL (≈ 251 µM); MIC (Klebsiella pneumoniae [15]): 312 µg/mL (≈ 1010 µM); MBC (Escherichia coli [16]): 78 µg/mL (≈ 251 µM); MBC (Citrobacter freundii [38]): 625 µg/mL (≈ 2010 µM); pIC50 [39]: 4.08; inhibition [40]: 73%; MBC (Klebsiella pneumoniae [17]): 625 µg/mL (≈ 2010 µM); MIC (Enterococcus faecalis [18]): 39 µg/mL (≈ 126 µM); MIC (Staphylococcus aureus [41]): 78 µg/mL (≈ 251 µM); inhibition (Morus alba): 64%; MIC (Pseudomonas aeruginosa [21]): > 100 µg/mL; MBC (Staphylococcus aureus [42]): 156 µg/mL (≈ 503 µM); MIC [43]: 14 µg/mL (≈ 45.1 µM); pIC50 (RAW264.7 [44]): 5.10; MIC (Staphylococcus aureus [45]): 32 µg/mL (≈ 103 µM); MIC (Staphylococcus aureus [22]): 6.25 µg/mL (≈ 20.1 µM); MBC (Salmonella typhi [23]): 39 µg/mL (≈ 126 µM); MBC (Shigella dysenteriae [25]): 39 µg/mL (≈ 126 µM); MIC (Micrococcus luteus): 12.5 µg/mL (≈ 40.3 µM); MIC (Salmonella typhi [26]): 10 µg/mL (≈ 32.2 µM); MFC (Candida albicans [46]): 156 µg/mL (≈ 503 µM); MIC [47]: 3.5 µg/mL (≈ 11.3 µM); pIC50 (RAW264.7 [48]): 5.10
